According to ChEMBL document CHEMBL2311283, “Structural modifications to tetrahydropyridine-3-carboxylate esters en route to the discovery of M5-preferring muscarinic receptor orthosteric antagonists” (J Med Chem, 2013):

How the values were obtained:
[1] = target: T1, Muscarinic acetylcholine receptor M3 (Homo sapiens, UniProt P20309); experiment: Binding affinity to human M3 muscarinic receptor
[2] = target: T2, Muscarinic acetylcholine receptor M4 (Homo sapiens, UniProt P08173); experiment: Binding affinity to human M4 muscarinic receptor
T2 sequence (P08173 whole entry): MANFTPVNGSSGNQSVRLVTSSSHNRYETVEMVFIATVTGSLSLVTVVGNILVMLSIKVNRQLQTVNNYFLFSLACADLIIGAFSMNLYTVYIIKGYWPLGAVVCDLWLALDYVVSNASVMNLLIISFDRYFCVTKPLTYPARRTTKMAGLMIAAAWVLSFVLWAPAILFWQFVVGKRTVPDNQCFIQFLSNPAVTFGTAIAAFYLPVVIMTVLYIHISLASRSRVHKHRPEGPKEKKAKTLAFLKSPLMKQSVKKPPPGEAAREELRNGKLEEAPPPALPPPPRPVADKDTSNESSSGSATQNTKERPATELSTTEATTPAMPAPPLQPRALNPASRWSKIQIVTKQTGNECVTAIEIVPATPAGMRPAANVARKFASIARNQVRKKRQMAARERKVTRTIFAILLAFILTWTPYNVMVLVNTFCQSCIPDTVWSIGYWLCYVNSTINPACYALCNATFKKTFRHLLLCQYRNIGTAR

[3] = target: T3, Muscarinic acetylcholine receptor M2 (Homo sapiens, UniProt P08172)
T3 sequence (P08172 whole entry): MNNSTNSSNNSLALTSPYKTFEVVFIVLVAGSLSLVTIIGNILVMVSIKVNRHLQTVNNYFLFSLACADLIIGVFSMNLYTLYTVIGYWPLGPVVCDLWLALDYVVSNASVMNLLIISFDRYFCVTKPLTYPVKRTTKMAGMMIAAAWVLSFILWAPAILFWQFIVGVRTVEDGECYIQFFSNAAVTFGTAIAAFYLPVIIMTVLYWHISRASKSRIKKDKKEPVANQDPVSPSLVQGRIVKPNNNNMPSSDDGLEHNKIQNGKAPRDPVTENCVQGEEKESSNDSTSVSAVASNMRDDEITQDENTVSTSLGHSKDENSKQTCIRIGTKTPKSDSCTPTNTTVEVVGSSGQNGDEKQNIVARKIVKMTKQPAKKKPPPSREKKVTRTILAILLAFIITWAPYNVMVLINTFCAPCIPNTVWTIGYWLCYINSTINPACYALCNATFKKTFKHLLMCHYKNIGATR

[4] = target: T1, Muscarinic acetylcholine receptor M3; experiment: Displacement of [3H]NMS from human M3 muscarinic receptor expressed in CHO-K1 cells; format: cell-based
Homo sapiens [5] = species: Homo sapiens; experiment: Selectivity index, ratio of Ki for human M3 muscarinic receptor to Ki for human M5 muscarinic receptor
[6] = target: T3, Muscarinic acetylcholine receptor M2; experiment: Displacement of [3H]NMS from human M2 muscarinic receptor expressed in CHO-K1 cells; format: cell-based
[7] = target: T4, Muscarinic acetylcholine receptor M1 (Homo sapiens, UniProt P11229); experiment: biochemical; format: cell-based, CHO-K1
T4 sequence (P11229 whole entry): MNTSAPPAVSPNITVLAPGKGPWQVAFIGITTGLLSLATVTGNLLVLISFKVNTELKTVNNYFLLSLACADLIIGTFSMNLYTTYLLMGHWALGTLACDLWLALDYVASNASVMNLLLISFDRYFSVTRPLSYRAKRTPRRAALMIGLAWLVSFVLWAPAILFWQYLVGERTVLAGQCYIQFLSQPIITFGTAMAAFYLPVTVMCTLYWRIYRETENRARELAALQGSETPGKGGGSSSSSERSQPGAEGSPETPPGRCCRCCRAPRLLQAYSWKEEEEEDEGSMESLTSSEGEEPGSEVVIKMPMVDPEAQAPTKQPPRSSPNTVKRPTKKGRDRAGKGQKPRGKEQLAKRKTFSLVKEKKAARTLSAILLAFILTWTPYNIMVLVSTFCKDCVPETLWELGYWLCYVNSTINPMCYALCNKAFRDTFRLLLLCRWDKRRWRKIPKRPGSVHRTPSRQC

[8] = target: T2, Muscarinic acetylcholine receptor M4; experiment: Displacement of [3H]NMS from human M4 muscarinic receptor expressed in CHO-K1 cells; format: cell-based
[9] = target: T5, Muscarinic acetylcholine receptor M5 (Homo sapiens, UniProt P08912); experiment: Displacement of [3H]NMS from human M5 muscarinic receptor expressed in CHO-K1 cells; format: cell-based
T5 sequence (P08912 whole entry): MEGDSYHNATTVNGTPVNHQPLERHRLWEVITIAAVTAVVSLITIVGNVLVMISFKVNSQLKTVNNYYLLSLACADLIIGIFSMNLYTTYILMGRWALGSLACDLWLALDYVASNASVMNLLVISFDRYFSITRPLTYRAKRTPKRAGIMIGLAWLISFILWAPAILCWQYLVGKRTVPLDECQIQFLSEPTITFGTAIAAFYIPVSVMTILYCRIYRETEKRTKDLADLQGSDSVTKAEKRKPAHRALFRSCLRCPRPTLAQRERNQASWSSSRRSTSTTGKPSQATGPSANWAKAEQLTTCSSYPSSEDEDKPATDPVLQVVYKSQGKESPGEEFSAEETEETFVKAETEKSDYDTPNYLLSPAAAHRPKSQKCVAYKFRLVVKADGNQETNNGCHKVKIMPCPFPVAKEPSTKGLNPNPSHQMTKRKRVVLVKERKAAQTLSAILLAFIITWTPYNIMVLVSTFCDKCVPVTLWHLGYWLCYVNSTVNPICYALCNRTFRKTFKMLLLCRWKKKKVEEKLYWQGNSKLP

Homo sapiens [10] = species: Homo sapiens; experiment: Selectivity index, ratio of Ki for human M1 muscarinic receptor to Ki for human M5 muscarinic receptor
Homo sapiens [11] = species: Homo sapiens; experiment: Selectivity index, ratio of Ki for human M4 muscarinic receptor to Ki for human M5 muscarinic receptor
[12] = target: T6, Muscarinic acetylcholine receptor M5 (Rattus norvegicus) (UniProt P08911); details: at 1 µM
T6 sequence (whole entry): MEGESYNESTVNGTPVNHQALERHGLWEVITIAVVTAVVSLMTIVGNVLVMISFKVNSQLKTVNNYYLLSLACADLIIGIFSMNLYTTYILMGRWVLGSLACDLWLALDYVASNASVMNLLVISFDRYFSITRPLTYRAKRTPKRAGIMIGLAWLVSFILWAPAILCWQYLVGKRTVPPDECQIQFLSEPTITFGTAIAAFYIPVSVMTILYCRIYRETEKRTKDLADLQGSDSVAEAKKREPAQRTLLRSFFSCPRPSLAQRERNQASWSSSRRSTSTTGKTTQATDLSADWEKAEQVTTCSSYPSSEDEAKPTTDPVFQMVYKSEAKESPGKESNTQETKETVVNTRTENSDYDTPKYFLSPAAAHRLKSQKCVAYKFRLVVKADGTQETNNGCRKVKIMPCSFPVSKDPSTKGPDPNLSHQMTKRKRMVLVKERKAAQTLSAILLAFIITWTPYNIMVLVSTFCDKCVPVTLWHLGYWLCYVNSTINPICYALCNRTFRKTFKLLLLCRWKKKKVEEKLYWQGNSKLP

[13] = target: T6, Muscarinic acetylcholine receptor M5 (Rattus norvegicus); experiment: Orthosteric antagonist activity at M5 muscarinic receptor in rat striatal slices assessed as inhibition of 10 uM oxotremorine-evoked [3H]DA release

T1 sequence (P20309 whole entry): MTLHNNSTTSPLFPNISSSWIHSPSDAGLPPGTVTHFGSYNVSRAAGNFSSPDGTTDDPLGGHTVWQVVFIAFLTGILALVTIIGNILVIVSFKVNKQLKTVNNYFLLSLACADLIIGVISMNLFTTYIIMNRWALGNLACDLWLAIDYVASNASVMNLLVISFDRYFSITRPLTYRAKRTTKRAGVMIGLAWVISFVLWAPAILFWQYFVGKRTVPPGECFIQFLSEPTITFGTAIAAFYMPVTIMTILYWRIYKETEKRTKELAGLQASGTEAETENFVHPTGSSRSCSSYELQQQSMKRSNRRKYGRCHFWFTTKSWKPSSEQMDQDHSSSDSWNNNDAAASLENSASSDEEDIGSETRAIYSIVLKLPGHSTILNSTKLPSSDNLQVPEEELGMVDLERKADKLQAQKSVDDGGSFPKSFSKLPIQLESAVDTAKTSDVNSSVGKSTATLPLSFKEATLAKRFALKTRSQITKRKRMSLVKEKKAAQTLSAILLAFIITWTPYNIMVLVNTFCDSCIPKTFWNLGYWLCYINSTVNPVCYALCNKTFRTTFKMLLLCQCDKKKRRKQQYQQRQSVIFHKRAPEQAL

## CCN(CC)CC1CCCCN1CC(=O)N1c2ccccc2C(=O)Nc2cccnc21 (stereo not drawn) [OTENZEPAD]
[1]
  Ki: 2090 nM
[2]
  Ki: 407 nM
[3]
  Ki: 81 nM

## CCN1CCC(c2ccccc2)=C(C(=O)OCCc2ccc3c(c2)CCO3)C1
[4]
  Ki: 31100 nM
Homo sapiens [5]
  Ratio Ki: 135
[6]
  Ki: > 100000 nM
[7]
  Ki: 1390 nM
[8]
  Ki: 10500 nM
[9]
  Ki: 230 nM
Homo sapiens [10]
  Ratio Ki: 6
Homo sapiens [11]
  Ratio Ki: 46

## CN1[C@@H]2C[C@@H](OC(=O)[C@H](CO)c3ccccc3)C[C@H]1[C@@H]1O[C@@H]12
[12]
  Imax: 100%
[13]
  inhibition: Dose-dependent effect
